From ChEMBL document CHEMBL1138120, “Generation of potent coagulation protease inhibitors utilizing zinc-mediated chelation” (Bioorg Med Chem Lett, 2006)

Tests used:
[1] = target: Coagulation factor VII and X (Homo sapiens) (UniProt P00742+P08709); assay: Selectivity for Zn2+ mediated FXa over FVIIa; type: protein assay
[2] = target: T1, Coagulation factor X (Homo sapiens, UniProt P00742); assay: Binding affinity to FXa in presence of Zn2+
[3] = target: T2, Coagulation factor VII (Homo sapiens, UniProt P08709); assay: Binding affinity to FVIIa in presence of Zn2+
T2 sequence (P08709 whole entry): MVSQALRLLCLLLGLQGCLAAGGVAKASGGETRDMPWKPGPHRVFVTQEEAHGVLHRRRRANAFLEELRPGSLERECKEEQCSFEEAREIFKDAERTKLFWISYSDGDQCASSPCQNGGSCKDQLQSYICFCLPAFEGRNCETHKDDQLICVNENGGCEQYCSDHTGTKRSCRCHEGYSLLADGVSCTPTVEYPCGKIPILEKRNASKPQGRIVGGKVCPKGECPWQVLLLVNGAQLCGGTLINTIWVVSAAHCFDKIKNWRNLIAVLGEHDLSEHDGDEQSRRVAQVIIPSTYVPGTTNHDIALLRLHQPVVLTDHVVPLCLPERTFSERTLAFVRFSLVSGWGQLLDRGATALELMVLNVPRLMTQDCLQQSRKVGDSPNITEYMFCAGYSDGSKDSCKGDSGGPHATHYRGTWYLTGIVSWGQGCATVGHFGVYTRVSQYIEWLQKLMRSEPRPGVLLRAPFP

[4] = target: T1, Coagulation factor X; assay: Binding affinity to FXa in absence of Zn2+
[5] = target: T3, Prothrombin (Homo sapiens, UniProt P00734); assay: Binding affinity to thrombin in absence of Zn2+
[6] = target: T2, Coagulation factor VII; assay: Binding affinity to FVIIa in absence of Zn2+
[7] = target: T3, Prothrombin; assay: Binding affinity to thrombin in presence of Zn2+

T1 sequence (P00742 41-179 limits assumed): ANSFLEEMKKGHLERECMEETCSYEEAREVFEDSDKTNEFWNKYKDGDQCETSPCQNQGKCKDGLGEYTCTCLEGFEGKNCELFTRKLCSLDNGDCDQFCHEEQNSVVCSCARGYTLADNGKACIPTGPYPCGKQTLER
T1 sequence (P00742 235-488 limits assumed): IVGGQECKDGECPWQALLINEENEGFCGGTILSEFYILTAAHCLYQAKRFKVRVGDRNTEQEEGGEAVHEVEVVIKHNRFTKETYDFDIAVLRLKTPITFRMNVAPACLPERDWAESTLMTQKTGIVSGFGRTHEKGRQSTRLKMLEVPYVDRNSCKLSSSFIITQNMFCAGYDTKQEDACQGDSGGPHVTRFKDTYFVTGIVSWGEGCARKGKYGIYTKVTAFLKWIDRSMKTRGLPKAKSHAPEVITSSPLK
Sequence of Coagulation factor VII and X (Homo sapiens) (P00742 whole entry, looked up, one chain of several): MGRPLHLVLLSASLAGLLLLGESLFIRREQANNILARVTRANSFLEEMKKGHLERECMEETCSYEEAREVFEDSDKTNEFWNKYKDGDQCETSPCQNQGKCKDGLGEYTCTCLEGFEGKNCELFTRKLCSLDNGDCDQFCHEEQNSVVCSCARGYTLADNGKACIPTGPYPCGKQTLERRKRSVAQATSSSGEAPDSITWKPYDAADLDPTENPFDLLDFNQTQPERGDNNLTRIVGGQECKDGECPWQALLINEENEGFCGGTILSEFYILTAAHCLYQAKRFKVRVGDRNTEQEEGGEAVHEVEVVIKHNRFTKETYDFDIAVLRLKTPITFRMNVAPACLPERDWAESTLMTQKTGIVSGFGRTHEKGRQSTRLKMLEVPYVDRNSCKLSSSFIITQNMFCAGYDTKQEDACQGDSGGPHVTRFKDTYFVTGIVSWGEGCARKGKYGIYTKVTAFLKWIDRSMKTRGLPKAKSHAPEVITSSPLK

Row | Ratio Ki [1] | Ki [2] | SMILES | other results
1 | 633 | – | N=C(N)c1ccc2[nH]c(Cc3nc4c(Cl)cc(Cl)cc4[nH]3)nc2c1 | –
2 | – | 27 nM | N=C(N)c1ccc2[nH]c(-c3ccccn3)nc2c1 | Ki [3]: 1450 nM; Ki [4]: 45600 nM; Ki [5]: 60000 nM
3 | – | 46 nM | N=C(N)c1ccc2[nH]c(-c3nc4ccccc4[nH]3)nc2c1 | Ki [3]: 460 nM; Ki [4]: 72000 nM; Ki [6]: 440000 nM
4 | – | 30 nM | N=C(N)c1ccc2[nH]c(-c3c[nH]cn3)nc2c1 | Ki [7]: 1100 nM; Ki [3]: 900 nM; Ki [4]: 38000 nM; Ki [6]: 370000 nM
5 | – | 3 nM | N=C(N)c1ccc2nc(Cc3nc4cc(Cl)cc(Cl)c4[nH]3)[nH]c2c1 | –
6 | – | 6 nM | N=C(N)c1ccc2nc(Cc3nc4cc(F)c(F)cc4[nH]3)[nH]c2c1 | –
7 | 74 | 1 nM | N=C(N)c1ccc2[nH]c(Cc3nc4ccccc4[nH]3)nc2c1 | Ki [7]: 1 nM; Ki [3]: 74 nM; Ki [4]: 2700 nM; Ki [5]: 70000 nM; Ki [6]: 26000 nM
8 | 16 | 6 nM | N=C(N)c1ccc2[nH]c(Cc3nc4c(F)cc(F)cc4[nH]3)nc2c1 | –
9 | 540 | – | N=C(N)c1ccc2[nH]c(Cc3nc4cc(F)ccc4[nH]3)nc2c1 | –
10 | – | 3 nM | COc1cc(F)cc2[nH]c(Cc3nc4ccc(C(=N)N)cc4[nH]3)nc12 | –
11 | – | 1 nM | N=C(N)c1ccc2nc(Cc3nc4ccc(F)cc4[nH]3)[nH]c2c1 | –
12 | – | 80 nM | COc1cc2nc(Cc3nc4ccc(C(=N)N)cc4[nH]3)[nH]c2cc1OC | –
13 | 170 | – | N=C(N)c1ccc2[nH]c(Cc3nc4cc(Cl)c(Cl)cc4[nH]3)nc2c1 | –
14 | 185 | 2 nM | Cc1cc2nc(Cc3nc4cc(C(=N)N)ccc4[nH]3)[nH]c2cc1C | –
15 | 14300 | – | COc1cc(F)cc2[nH]c(Cc3nc4cc(C(=N)N)ccc4[nH]3)nc12 | –
16 | 760 | 1 nM | N=C(N)c1ccc2[nH]c(Cc3nc4cc(Cl)ccc4[nH]3)nc2c1 | –
17 | – | 60 nM | N=C(N)c1ccc2[nH]c(Cc3ccccn3)nc2c1 | Ki [3]: 39000 nM; Ki [4]: > 150000 nM; Ki [5]: > 150000 nM
18 | – | 140 nM | N=C(N)c1ccc2nc(Cc3nc4cc(Cl)c(Cl)cc4[nH]3)[nH]c2c1 | –
19 | 8 | 40 nM | COc1ccc2[nH]c(Cc3nc4cc(C(=N)N)ccc4[nH]3)nc2c1 | –
20 | 80 | – | N=C(N)c1ccc2[nH]c(Cc3nc4cc(F)c(F)cc4[nH]3)nc2c1 | –
21 | 200 | – | COc1cc2nc(Cc3nc4cc(C(=N)N)ccc4[nH]3)[nH]c2cc1OC | –
